# According to ChEMBL document CHEMBL1145647, “Phenylcyclobutyl triazoles as selective inhibitors of 11beta-hydroxysteroid dehydrogenase type I” (Bioorg Med Chem Lett, 2008):
# Assays:
# [1] = target: 11-beta-hydroxysteroid dehydrogenase 1 (Mus musculus, UniProt P50172); assay: Inhibition of mouse 11-beta-HSD1 by SPA assay
# [2] = target: T1, 11-beta-hydroxysteroid dehydrogenase type 2 (Mus musculus, UniProt P51661); assay: Inhibition of mouse 11-beta-HSD2 by SPA assay
# T1 sequence (P51661 whole entry): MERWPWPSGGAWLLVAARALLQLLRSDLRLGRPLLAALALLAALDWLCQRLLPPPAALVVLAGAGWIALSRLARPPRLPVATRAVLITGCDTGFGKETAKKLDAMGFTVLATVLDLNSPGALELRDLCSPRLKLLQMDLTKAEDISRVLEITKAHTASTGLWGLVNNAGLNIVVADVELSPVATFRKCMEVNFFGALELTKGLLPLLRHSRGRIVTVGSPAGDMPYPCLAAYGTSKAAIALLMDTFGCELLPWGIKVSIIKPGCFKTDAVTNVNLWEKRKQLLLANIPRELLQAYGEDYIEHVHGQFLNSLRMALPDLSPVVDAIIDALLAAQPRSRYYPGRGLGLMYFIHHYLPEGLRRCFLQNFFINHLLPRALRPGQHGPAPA
# [3] = target: T2, 11-beta-hydroxysteroid dehydrogenase type 2 (Homo sapiens, UniProt P80365); assay: Inhibition of human 11-beta-HSD2 by SPA assay
# T2 sequence (P80365 whole entry): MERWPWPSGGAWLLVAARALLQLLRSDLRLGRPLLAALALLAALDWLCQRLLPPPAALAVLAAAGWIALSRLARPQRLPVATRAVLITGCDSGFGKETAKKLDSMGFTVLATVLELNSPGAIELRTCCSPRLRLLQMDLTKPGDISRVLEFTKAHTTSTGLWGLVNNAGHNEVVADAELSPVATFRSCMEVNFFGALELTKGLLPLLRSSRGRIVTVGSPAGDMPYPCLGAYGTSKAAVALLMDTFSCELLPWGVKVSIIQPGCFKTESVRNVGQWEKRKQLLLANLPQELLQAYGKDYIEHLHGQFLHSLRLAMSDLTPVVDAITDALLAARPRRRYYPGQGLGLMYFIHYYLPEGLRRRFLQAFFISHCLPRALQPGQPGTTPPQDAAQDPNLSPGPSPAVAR
# [4] = target: 11-beta-hydroxysteroid dehydrogenase 1 (Homo sapiens, UniProt P28845); assay: Inhibition of human 11-beta-HSD1 by SPA assay
# Chain of 11-beta-hydroxysteroid dehydrogenase 1 (Homo sapiens, UniProt P28845) (P28845 whole entry): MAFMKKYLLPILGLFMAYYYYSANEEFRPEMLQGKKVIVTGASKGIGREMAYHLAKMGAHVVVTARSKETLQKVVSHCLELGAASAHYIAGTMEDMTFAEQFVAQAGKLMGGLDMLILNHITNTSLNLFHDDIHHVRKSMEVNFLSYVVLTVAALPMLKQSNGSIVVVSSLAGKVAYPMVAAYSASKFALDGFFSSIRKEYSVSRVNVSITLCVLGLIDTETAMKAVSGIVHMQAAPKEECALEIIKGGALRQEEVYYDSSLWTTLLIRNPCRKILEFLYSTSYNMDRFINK
# Mus musculus [5] = assay: Inhibition of 11-beta-HSD1 in mouse pharmacodynamic model assessed as inhibition of [3H]cortisone to [3H]cortisol at 10 mg/kg, po after 1 hr; format: functional
# Mus musculus [6] = assay: Inhibition of 11-beta-HSD1 in mouse pharmacodynamic model assessed as inhibition of [3H]cortisone to [3H]cortisol at 10 mg/kg, po after 4 hrs; format: functional
# [7] = Plasma concentration in C57B6 mouse at 10 mg/kg; format: ADME, organism-based; parameters: dose 10 mg/kg
# [8] = Oral bioavailability in C57B6 mouse at 10 mg/kg; format: ADME, organism-based; details: in vivo
# [9] = Half life in C57B6 mouse at 10 mg/kg; format: ADME, organism-based; parameters: dose 10 mg/kg; details: in vivo
# Chain of 11-beta-hydroxysteroid dehydrogenase 1 (Mus musculus, UniProt P50172) (P50172 whole entry): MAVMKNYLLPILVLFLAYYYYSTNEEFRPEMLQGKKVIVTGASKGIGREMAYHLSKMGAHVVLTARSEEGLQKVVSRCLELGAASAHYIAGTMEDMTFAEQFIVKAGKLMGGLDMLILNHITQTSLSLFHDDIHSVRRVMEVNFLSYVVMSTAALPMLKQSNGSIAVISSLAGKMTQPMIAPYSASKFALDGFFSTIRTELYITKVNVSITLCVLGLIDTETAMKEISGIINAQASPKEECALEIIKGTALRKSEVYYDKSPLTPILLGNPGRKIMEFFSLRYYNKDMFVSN
IC50 [1] [nM],IC50 [2] [nM],IC50 [3] [nM],IC50 [4] [nM],clearance [7] [mL/min/kg],bioavailability [8] [%],half-life [9] [h],Structure (SMILES),inhibition in vivo at 10 mg/kg (Mus musculus [5]) [%],inhibition in vivo at 10 mg/kg (Mus musculus [6]) [%]
38,> 4000,> 4000,22,–,–,–,F[C@H]1C[C@@](c2ccc(Cl)cc2)(c2nnc(C3CC3)n2C2CC2)C1,–,–
107,> 4000,> 4000,35,–,–,–,FC1(F)CC(c2ccc(Cl)cc2)(c2nnc(C3CC3)n2C2CC2)C1,–,–
19,> 4000,4000,2,–,–,–,Fc1cccc(C2(c3nnc4n3CCCCCC4)CCC2)c1,87,68
–,–,–,–,–,–,–,C1C2CC3CC1CC(c1nnc(C4CC4)n1C1CC1)(C2)C3,–,74
57,> 4000,1960,10,–,–,–,Cc1cccc(C2(c3nnc4n3CCCCCC4)CCCC2)c1,20,22
41,–,–,2,–,–,–,Clc1ccc(C2(c3nnc4n3CCCCCC4)CCCC2)cc1,–,–
374,> 4000,–,15,–,–,–,Cc1ccc(C2(c3nnc4n3CCCCCC4)CCCCC2)cc1,–,–
27,> 4000,1270,1,–,–,–,Fc1ccccc1C1(c2nnc3n2CCCCCC3)CCCC1,57,18
454,> 4000,–,32,–,–,–,Clc1ccc(C2(c3nnc4n3CCCCCC4)CCCCC2)cc1,–,–
37,> 4000,> 4000,3,–,–,–,Fc1ccc(C2(c3nnc4n3CCCCCC4)CCC2)cc1,68,55
25,> 4000,–,2,–,–,–,Cc1ccc(C2(c3nnc4n3CCCCCC4)CCCC2)cc1,35,3
100,> 4000,1040,13,–,–,–,c1ccc(C2(c3nnc4n3CCCCCC4)CCCCC2)cc1,25,0
16,> 4000,< 4000,1,–,–,–,Fc1ccccc1C1(c2nnc3n2CCCCCC3)CCC1,90,53
98,> 10000,> 3000,7.8,–,–,–,C1CCc2nnc(C34CC5CC(CC(C5)C3)C4)n2CC1,59,17
–,–,–,–,–,–,–,C1CCCn2c(nnc2C23CC4CC(CC(C4)C2)C3)CC1,–,24
52,> 4000,> 4000,2,–,–,–,Cc1cccc(C2(c3nnc4n3CCCCCC4)CCC2)c1,17,22

IC50 [1] [nM],IC50 [2] [nM],IC50 [3] [nM],IC50 [4] [nM],clearance [7] [mL/min/kg],bioavailability [8] [%],half-life [9] [h],Structure (SMILES),inhibition in vivo at 10 mg/kg (Mus musculus [5]) [%],inhibition in vivo at 10 mg/kg (Mus musculus [6]) [%]
14,–,–,1,–,–,–,Clc1ccc(C2(c3nnc4n3CCCCCC4)CCC2)cc1,91,77
61,> 4000,> 4000,43,–,–,–,Oc1cccc(C2(c3nnc4n3CCCCCC4)CCCC2)c1,3,21
230,> 4000,> 4000,2,–,–,–,Clc1ccc(C2(c3nnc4n3CCCCCC4)CC2)cc1,–,–
332,> 4000,> 4000,1,–,–,–,Cc1ccc(C2(c3nnc4n3CCCCCC4)CC2)cc1,–,–
355,> 4000,> 4000,5,–,–,–,FC(F)(F)c1ccccc1C1(c2nnc3n2CCCCCC3)CCC1,–,–
12,> 4000,1040,2,–,–,–,c1ccc(C2(c3nnc4n3CCCCCC4)CCCC2)cc1,73,37
494,> 4000,1170,27,–,–,–,Fc1ccc(C2(c3nnc4n3CCCCCC4)CCCCC2)cc1,–,–
8,> 4000,4000,1,–,–,–,c1ccc(C2(c3nnc4n3CCCCCC4)CCC2)cc1,88,72
18,> 4000,> 4000,8,–,–,–,Fc1ccc(C2(c3nnc4n3CCCCCC4)CCCC2)cc1,58,30
172,> 4000,> 4000,8,–,–,–,c1ccc(C2(c3nnc4n3CCCCCC4)CC2)cc1,63,45
115,> 4000,> 4000,2,–,–,–,FC(F)(F)c1ccc(C2(c3nnc4n3CCCCCC4)CCC2)cc1,–,–
199,> 4000,1960,2,–,–,–,Clc1ccc(C2(c3nnc4n3CCCCCC4)CC2)c(Cl)c1,–,–
16,> 4000,> 4000,5,10.7,100,1.5,F[C@H]1C[C@](c2ccc(Cl)cc2)(c2nnc(C3CC3)n2C2CC2)C1,92,91
19,> 4000,2010,2,–,–,–,Cc1ccc(C2(c3nnc4n3CCCCCC4)CCC2)cc1,48,28
78,> 4000,3320,1,–,–,–,Cc1ccccc1C1(c2nnc3n2CCCCCC3)CCC1,23,21
